Assay results as given in ChEMBL document CHEMBL1201862, “PubChem BioAssay data set” (2004).
Activity calls are given as the source filed them.

Legend:
[1] = target: E3 ubiquitin-protein ligase Mdm2 (Homo sapiens, UniProt Q00987); experiment: MDM2-luc reporter signal enhancers, multi-concentration potency testing, MDM2 ubiquitin-protein ligase inhibitor program, whole-cell format, luminescence detection, 384-well microplate (AID 1394); assay type: functional;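 further: MDM2 E3 inhibitors raise luminescence so EC50 is for signal enhancement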
Chain of E3 ubiquitin-protein ligase Mdm2 (Q00987 whole entry): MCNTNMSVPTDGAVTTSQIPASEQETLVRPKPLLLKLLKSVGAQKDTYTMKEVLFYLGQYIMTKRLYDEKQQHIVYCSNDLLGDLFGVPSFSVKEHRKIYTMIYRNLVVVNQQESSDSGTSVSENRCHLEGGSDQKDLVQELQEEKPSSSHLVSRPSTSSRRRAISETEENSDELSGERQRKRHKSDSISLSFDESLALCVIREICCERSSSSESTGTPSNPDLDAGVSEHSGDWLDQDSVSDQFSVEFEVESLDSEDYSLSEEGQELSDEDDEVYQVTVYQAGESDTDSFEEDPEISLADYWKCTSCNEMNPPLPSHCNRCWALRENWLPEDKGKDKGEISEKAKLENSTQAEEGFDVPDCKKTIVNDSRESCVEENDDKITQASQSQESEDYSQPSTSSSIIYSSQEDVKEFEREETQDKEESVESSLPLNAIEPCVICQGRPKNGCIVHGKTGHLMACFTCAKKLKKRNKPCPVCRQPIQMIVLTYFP

[2] = IC50 of Artemis nuclease activity blockers – biochemical, fluorescence intensity, dose response (AID 720701); assay type: functional;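 further: Artemis endonuclease enzyme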
[3] = target: T1, Mannose-6-phosphate isomerase (Homo sapiens, UniProt P34949); experiment: MPI inhibition at elevated mannose 6-phosphate – biochemical, fluorescence intensity, high mannose 6-phosphate, primary screen (AID 1220)
T1 sequence (P34949 whole entry): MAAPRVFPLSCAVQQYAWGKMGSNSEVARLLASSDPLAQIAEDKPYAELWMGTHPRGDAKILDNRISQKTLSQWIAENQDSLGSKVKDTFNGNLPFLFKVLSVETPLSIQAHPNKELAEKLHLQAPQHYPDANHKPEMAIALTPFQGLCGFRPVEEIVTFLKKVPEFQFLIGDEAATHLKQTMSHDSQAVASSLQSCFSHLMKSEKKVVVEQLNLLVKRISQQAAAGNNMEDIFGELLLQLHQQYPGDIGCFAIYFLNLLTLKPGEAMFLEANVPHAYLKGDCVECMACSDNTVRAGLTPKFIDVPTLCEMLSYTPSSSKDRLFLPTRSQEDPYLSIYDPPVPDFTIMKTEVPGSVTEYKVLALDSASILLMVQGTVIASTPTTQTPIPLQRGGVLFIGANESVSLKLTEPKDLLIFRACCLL

[4] = target: T2, Cytochrome P450 1A2 (Homo sapiens, UniProt P05177);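 further: PubChem cytochrome P450 panel assay, CYP1A2 panel member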
T2 sequence (P05177 whole entry): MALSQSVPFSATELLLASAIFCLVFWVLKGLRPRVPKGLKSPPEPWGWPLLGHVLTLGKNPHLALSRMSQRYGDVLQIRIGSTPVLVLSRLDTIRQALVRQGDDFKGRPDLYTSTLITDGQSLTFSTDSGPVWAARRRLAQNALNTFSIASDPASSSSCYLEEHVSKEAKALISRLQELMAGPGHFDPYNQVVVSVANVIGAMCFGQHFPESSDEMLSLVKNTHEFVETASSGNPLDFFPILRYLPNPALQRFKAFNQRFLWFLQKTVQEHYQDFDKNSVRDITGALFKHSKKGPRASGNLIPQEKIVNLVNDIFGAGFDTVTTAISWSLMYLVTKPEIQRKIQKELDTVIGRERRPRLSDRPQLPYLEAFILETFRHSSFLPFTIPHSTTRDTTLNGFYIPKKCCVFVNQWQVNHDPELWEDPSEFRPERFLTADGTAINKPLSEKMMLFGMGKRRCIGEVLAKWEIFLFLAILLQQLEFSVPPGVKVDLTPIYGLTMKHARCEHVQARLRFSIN

[5] = P. falciparum Dd2 growth inhibitors, dose response, SYBR Green, cherry-picked samples (AID 1159567); assay type: functional, cell-based
[6] = toxicity to human hepatoma HepG2 cells – cell-based, cherry-picked samples, cytotoxicity control, dose response (AID 1159577); assay type: functional
[7] = target: Paired box protein Pax-8 (Homo sapiens, UniProt Q06710); experiment: PAX8 transcriptional activity inhibition in RMG-I – RMG-I cells, luciferase, cherry-pick, dose response (AID 687027); assay type: functional, cell-based;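 further: luciferase reporter driven by Pax8 target thyroperoxidase promoter measured by SteadyGlo luminescence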
Chain of Paired box protein Pax-8 (Q06710 whole entry): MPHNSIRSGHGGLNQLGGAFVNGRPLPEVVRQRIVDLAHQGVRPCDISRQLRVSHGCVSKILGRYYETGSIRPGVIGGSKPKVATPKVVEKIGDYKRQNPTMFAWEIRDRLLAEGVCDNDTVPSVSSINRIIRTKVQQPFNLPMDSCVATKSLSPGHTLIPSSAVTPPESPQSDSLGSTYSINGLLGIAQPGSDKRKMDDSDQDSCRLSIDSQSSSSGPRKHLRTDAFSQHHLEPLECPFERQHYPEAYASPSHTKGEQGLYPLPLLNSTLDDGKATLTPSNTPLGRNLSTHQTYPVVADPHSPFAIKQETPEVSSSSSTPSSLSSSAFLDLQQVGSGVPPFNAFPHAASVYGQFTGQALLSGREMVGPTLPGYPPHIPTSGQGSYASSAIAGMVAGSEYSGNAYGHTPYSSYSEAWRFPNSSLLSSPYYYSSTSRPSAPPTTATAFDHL

[8] = A2780 cell killing – plate reader, dry powder samples, cytotoxicity control, dose response (AID 743046); assay type: functional, cell-based
[9] = OVCAR8 cell viability loss – plate reader, dry powder samples, PAX8 project, dose response (AID 743197); assay type: functional, cell-based; conditions: OVCAR-8
[10] = test system: Streptococcus sp. 'group A'; experiment: Streptococcus pyogenes SK(-)GAS viability under kanamycin – luminescence, BacTiterGlo, confirmation, counter-screen for streptokinase expression inhibitor project, dose response (AID 1900); assay type: functional, organism-based
[11] = target: T3, Streptokinase A (Streptococcus pyogenes serotype M1, UniProt P10520); experiment: viability-normalized secreted streptokinase activity reduction – plasminogen activation absorbance, OD405, dose response (AID 1914); assay type: functional, Streptococcus pyogenes M1 GAS;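 further: secreted streptokinase activity via plasminogen activation per viability signal from cell pellet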
T3 sequence (P10520 whole entry): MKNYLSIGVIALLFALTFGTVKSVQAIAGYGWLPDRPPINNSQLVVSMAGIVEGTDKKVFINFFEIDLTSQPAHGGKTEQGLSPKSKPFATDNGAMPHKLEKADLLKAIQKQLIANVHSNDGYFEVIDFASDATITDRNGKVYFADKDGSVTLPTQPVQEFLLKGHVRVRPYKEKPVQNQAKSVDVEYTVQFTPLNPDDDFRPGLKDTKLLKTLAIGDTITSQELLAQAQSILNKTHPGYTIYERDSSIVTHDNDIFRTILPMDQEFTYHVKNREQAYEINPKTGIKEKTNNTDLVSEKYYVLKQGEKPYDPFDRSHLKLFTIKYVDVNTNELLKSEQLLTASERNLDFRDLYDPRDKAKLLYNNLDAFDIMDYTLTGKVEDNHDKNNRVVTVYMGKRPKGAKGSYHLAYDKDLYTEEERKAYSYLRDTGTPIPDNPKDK

[12] = viability of PTEN-deleted HCT116 cells – cell-based, HCT116 PTEN knockout, dose response (AID 1047); assay type: functional;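 further: HCT116 colon tumor cells with PTEN knocked out; cells exposed to compound for 60 hours before readout; potency for loss of cell viability measured by luminescence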
[13] = viability of HCT116 lacking mutant beta-catenin – cell-based, human colon tumor, dose response (AID 1045); assay type: functional;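 further: HCT116 colon tumor cells with beta catenin knocked out; cells exposed to compound for 60 hours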
[14] = test system: Streptococcus; experiment: GAS UMAA2166 growth inhibition – luminescence, BacTiterGlo, counter-screen for streptokinase expression inhibitor project, dose response (AID 1915); assay type: functional, organism-based;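 further: potency for reduction of bacterial viability or growth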
[15] = target: T4, Protein skinhead-1 (Caenorhabditis elegans, UniProt P34707); assay type: functional
T4 sequence (P34707 whole entry): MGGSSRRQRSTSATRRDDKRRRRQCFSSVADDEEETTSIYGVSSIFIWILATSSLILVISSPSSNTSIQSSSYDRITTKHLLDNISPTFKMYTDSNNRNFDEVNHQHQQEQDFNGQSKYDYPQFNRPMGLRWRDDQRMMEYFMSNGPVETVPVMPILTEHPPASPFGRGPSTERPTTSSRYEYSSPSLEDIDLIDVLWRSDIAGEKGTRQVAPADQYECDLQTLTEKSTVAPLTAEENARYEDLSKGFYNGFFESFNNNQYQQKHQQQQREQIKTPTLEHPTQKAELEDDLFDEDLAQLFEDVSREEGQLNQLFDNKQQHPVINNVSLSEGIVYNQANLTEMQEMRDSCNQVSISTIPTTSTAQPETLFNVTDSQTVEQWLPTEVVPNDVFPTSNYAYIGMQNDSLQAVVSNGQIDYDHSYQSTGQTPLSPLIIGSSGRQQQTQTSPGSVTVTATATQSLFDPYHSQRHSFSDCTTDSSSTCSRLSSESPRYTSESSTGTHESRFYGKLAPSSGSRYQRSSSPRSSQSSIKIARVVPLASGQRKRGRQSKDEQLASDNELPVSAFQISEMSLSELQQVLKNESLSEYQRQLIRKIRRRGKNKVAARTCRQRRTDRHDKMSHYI

[16] = target: Disintegrin and metalloproteinase domain-containing protein 17 (Homo sapiens, UniProt P78536); experiment: inhibition of ADAM17 substrate cleavage – biochemical, quenched FRET substrate, counter-screen for ADAM10 exosite inhibitor project, dose response (AID 743253)
Chain of Disintegrin and metalloproteinase domain-containing protein 17 (P78536 whole entry, the tested form may be a part): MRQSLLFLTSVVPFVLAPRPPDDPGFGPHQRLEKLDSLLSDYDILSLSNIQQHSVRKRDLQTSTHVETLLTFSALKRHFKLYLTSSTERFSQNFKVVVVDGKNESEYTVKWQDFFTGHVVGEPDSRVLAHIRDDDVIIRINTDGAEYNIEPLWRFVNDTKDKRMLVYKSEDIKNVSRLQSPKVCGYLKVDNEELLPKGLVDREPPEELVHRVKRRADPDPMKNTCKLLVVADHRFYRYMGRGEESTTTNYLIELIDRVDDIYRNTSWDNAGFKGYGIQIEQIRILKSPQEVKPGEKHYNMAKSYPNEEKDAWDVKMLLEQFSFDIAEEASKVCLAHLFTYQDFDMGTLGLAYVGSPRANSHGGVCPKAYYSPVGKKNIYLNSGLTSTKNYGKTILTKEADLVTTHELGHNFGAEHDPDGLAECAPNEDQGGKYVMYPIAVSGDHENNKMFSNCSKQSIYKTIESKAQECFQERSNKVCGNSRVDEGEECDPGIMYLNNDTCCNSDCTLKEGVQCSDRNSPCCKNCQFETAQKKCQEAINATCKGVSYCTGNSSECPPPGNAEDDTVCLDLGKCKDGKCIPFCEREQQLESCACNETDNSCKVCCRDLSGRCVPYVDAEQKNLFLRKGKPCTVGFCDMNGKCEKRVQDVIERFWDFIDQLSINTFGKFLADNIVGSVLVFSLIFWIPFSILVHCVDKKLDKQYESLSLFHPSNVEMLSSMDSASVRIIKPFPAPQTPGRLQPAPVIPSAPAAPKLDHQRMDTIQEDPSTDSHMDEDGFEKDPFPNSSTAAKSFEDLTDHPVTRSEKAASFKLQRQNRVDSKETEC

## C=CCN(c1cccc(C(F)(F)F)c1)S(=O)(=O)c1cccc(C(=O)OCC(=O)NCCC)c1
[1]
  EC50: 277 µM (not active)

## CCOc1cccc(C(=O)NC(=S)Nc2ccc(N3CCCC3)cc2)c1
[2]
  IC50: > 20 µM (inactive)

## Brc1c(NC2=NCCN2)ccc2nccnc12 [BRIMONIDINE]
[3]
  IC50: > 50 µM (not active)
[4]
  AC50: 39.8 µM (inconclusive)

## CCCNC(=O)N1CC2(CCN(Cc3cccc(OC)c3)CC2)c2c(n(C)c3cc(OC)ccc23)[C@@H]1CO
[5]
  AC50: 4.94 µM (active)
[6]
  AC50: 21.1 µM (active)

## C[C@@H]1CN([C@@H](C)CO)C(=O)c2cc(NC(=O)Nc3ccc(C(F)(F)F)cc3)ccc2O[C@@H](C)CCCCO[C@H]1CN(C)C(=O)c1ccccc1
[7]
  AC50: 5.18 µM (active)
[8]
  AC50: 54.3 µM (active)
[9]
  AC50: > 70 µM (inactive)

## Oc1nc2cc3c(cc2cc1CN(Cc1cccnc1)C(S)=NCc1ccco1)OCCO3
[3]
  IC50: > 50 µM (not active)

## COc1ccc(S(=O)(=O)Nc2cc3c4c(oc3c3ccccc23)CC(C)(C)CC4=O)cc1
[10]
  EC50: 9.62 µM (active)
[11]
  EC50: 97 µM (active)
[12]
  EC50: 20.1 µM (active)
[13]
  EC50: 26.6 µM (active)
[14]
  EC50: 78.6 µM (active)
[15]
  IC50: > 100 µM (inactive)
[16]
  IC50: > 69.5 µM (inactive)

## C[C@H](CO)N1C[C@H](C)[C@@H](CN(C)Cc2ccc(Cl)c(Cl)c2)OCCCC[C@H](C)Oc2ccc(NS(=O)(=O)c3ccc(F)cc3)cc2C1=O
[7]
  AC50: 15.6 µM (active)
[8]
  AC50: 49.6 µM (active)
[9]
  AC50: > 70 µM (inactive)
